Experimental data as given in patent publication EP4678643A1, “KRAS INHIBITOR COMPOUND, PHARMACEUTICAL COMPOSITION THEREOF, AND USE THEREOF” (Sunshine Lake Pharma Co., Ltd., priority 2023, dated 2024).
Where two headings read alike, the source gives them in different places.

Experiments:
[1] = tested on: pERK in MKN1 cells (KRAS WTdep); assay: Inhibitory effect on intracellular pERK by In-Cell Western assay, MKN1; assay type: cell-based; conditions: Homo sapiens, MKN-1, pERK inhibition, compound incubation 3 h
Experimental: (§1) 1. Determination of Inhibitory Effect on Intracellular pERK by In-Cell Western Assay
(§2) (1) On the first day, the following cells were revived and cultured with the corresponding culture medium and incubated at 37 °C, 5% CO2 until confluence.
(§3) (2) On the third day, the culture medium was removed, the cells were rinsed once with DPBS, 2 mL of TrypLE™ trypsin was added for digestion, and the cells were placed at room temperature until the cells detached. (3) 5 mL fresh culture medium was added to resuspend cells to terminate the digestion, and the cells were gently pipetted and centrifuged at 1000 rpm for 5 minutes at room temperature. (4) The supernatant was removed, and 5 mL fresh culture medium was added to resuspend the cells and count cells. (5) The cells were plated in a 384-well plate with appropriate cell concentration by adjusting with complete culture medium and incubated at 37 °C, 5% CO2 for overnight. (6) 200 nL of the prepared serial dilution compound (DMSO final concentration was 0.5%) was added and incubated at 37 °C, CO2 for 3 h (HPAC cell lines for 1 h). (7) The cells were fixed. (8) The cells were washed twice with PBS. (9) The blocking solution was added and the cells were incubated at room temperature for 1 h. (10) The blocking solution was removed, and the primary antibody (phospho-ERK Rabbit mAb + GAPDH (D4C6R) Mouse mAb) was added and the cells were incubated at 4 °C for overnight. (11) The cells were washed twice with PBST (PBS + 0.05% Tween 20) for 2 minutes each time. (12) PBST was removed and secondary antibody (IRDye 800CW Goat anti-Rabbit IgG (H+L) + IRDye 680RD Goat anti Mouse IgG (H+L)) was added and incubated away from light at room temperature. (14) Secondary antibody was discarded and the cell was washed twice with PBST, 2 minutes each time. (15) 384-well plate was inverted and centrifuged at 1000 rpm at room temperature for 1 minute, and the 384-well plate was scanned with Odyssey CLx. (16) Data analysis: • a) Assay stability check was peformed by using DMSO and reference control data: [formula] [formula] • b) nonlinear fitting of Compound IC50: Y = Bottom + (Top−Bottom)/(1+10^(∧)((LogIC50−X)×HillSlope)). [formula]

[2] = tested on: pERK in AGS cells (KRAS G12D); assay: Inhibitory effect on intracellular pERK by In-Cell Western assay, AGS; assay type: cell-based; conditions: pERK inhibition, compound incubation 3 h, read-out: AGS, IC50 (nM) KRAS p.G12D
Experimental: as §1, §2
as §3, with “CLx.” for “CLx. (16) Data analysis: • a) Assay stability check was peformed by using DMSO and reference control data: [formula] [formula] • b) nonlinear fitting of Compound IC50: Y = Bottom + (Top−Bottom)/(1+10^(∧)((LogIC50−X)×HillSlope)). [formula]”

[3] = tested on: pERK in A549 cells (KRAS p.G12S); assay: Inhibitory effect on intracellular pERK by In-Cell Western assay, A549; assay type: cell-based; conditions: Homo sapiens, pERK inhibition, compound incubation 3 h
Experimental: as §1, §2, §3

[4] = tested on: pERK in H358 cells (KRAS p.G12C); assay: Inhibitory effect on intracellular pERK by In-Cell Western assay, H358; assay type: cell-based; conditions: Homo sapiens, NCI-H358, pERK inhibition, compound incubation 3 h
Experimental: as §1, §2, §3

[5] = mouse, in vivo
Experimental: (§4) Pharmacokinetic evaluation of the compounds of the present invention by intravenous injection or oral gavage in mice
(§5) The inventors conducted a pharmacokinetic evaluation of the compounds of this invention in mice.
(§6) The compounds of the present invention were administered to test animals in the form of a solution of 5% DMSO + 30% PEG400 + 65% saline, 10% DMSO + 10% Kolliphor HS15 + 80% Saline, 10% DMSO + 89% (25% SBE-B-CD) + (2% HCl), 20% PEG400 + 80% sterile water for injection, or 10% DMA + 10% HS15 + 30% PEG400 + 50% sterile water for injection. The animals were fasted for 12 hours before administration and had free access to water. For the intravenous administration group, the dose was 2 mg/kg/day, qd. Venous blood samples (approximately 0.15 mL) were collected at the following time points after administration: 0.083, 0.25, 0.5, 1.0, 2.0, 5.0, 7.0 and 24 hours. EDTA-K2 was pre-added to the blood collection tube as an anticoagulant. Blood samples were centrifuged at 12,000 rpm for 2 minutes, and plasma was collected and stored at -20°C or -70°C. For the intravenous administration group, the dose was 5 mg/kg/day, qd. Venous blood samples (approximately 0.15 mL) were collected at the following time points after administration: 0.25, 0.5, 1.0, 2.0, 5.0, 7.0 and 24 hours. EDTA-K2 was pre-added to the blood collection tube as an anticoagulant. Blood samples were centrifuged at 12,000 rpm for 2 minutes, and plasma was collected and stored at -20°C or -70°C.
(§7) The collected plasma samples were processed (frozen plasma was thawed at room temperature and vortexed for 15 seconds. 10-20 µL of plasma was added to 120-150 µL of acetonitrile solution containing the internal standard and vortexed for 5 minutes. The sample was centrifuged at 4,000 rpm for 5 minutes. 100 µL of the supernatant was added to 120-150 µL of methanol/water (v/v = 1/1) and mixed). The concentrations of the compounds in the plasma were analyzed by LC-MS/MS.

KRAS G12D-GTP & SOS1 = KRAS G12D-GTP & SOS1 (Homo sapiens, UniProt P01116, G12D); assay: KRAS G12D/SOS1 Binding Assay (HTRF); conditions: competitive binding, 665/615 nm ratio
Sequence of KRAS G12D-GTP & SOS1 (P01116 1-188 isoform P01116-2 G12D): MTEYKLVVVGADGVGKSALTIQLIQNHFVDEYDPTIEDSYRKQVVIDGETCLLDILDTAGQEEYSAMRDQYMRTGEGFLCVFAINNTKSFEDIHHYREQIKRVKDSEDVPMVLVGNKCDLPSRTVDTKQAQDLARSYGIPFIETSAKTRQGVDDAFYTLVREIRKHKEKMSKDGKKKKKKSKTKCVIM
Excerpt: 3. KRAS G12D/SOS1 Binding Assay

[6] = tested on: pERK in HCT 116 cells (KRAS p.G13D); assay: Inhibitory effect on intracellular pERK by In-Cell Western assay, HCT 116; assay type: cell-based; conditions: Homo sapiens, pERK inhibition, compound incubation 3 h
Experimental: as §1, §2, §3

[7] = tested on: pERK in HPAC cells (KRAS p.G12D); assay: Inhibitory effect on intracellular pERK by In-Cell Western assay, HPAC; assay type: cell-based; conditions: Homo sapiens, pERK inhibition, compound incubation 1 h, read-out: HPAC, IC50 (nM) KRASp.G12D
Experimental: as §1, §2
as §3, with “[formula] • b) nonlinear fitting of Compound IC50: Y = Bottom + (Top−Bottom)/(1+10^(∧)((LogIC50−X)×HillSlope)). [formula]” left out

KRAS G12D-GTP & cRAF = KRAS G12D-GTP & cRAF (Homo sapiens, UniProt P01116, G12D); assay: KRAS G12D/cRAF Binding Assay (HTRF); conditions: competitive binding, 665/615 nm ratio
Sequence of KRAS G12D-GTP & cRAF (P01116 1-188 isoform P01116-2 G12D): as above
Excerpt: 2. KRAS G12D/cRAF Binding Assay

[8] = tested on: pERK in NCI-H727 cells (KRAS p.G12V); assay: Inhibitory effect on intracellular pERK by In-Cell Western assay, NCI-H727; assay type: cell-based; conditions: Homo sapiens, pERK inhibition, compound incubation 3 h
Experimental: as §1, §2
as §3, with “[formula] • b) nonlinear fitting of Compound IC50: Y = Bottom + (Top−Bottom)/(1+10^(∧)((LogIC50−X)×HillSlope)). [formula]” left out

[9] = Pharmacokinetic evaluation by intravenous injection or oral gavage in mice
Experimental: as §4, §5, §6, §7

in vivo = conditions: mouse
Experimental: as §4, §5, §6, §7

Row | Structure (SMILES) | IC50 [1] | IC50 [3] | IC50 [4] | IC50 [6] | IC50 ([2]; Homo sapiens, AGS, 3 h) | also measured
1 | C#Cc1c(F)ccc2cc(O)cc(-c3nc(C#CC)c4c(N5CCCOCC5)nc(OCC56CCCN5CC(F)C6)nc4c3F)c12 (stereo not drawn) [Compound 1] | 1.9 nM | 0.6 nM | 0.4 nM | 2.1 nM | – | IC50 [2]: 0.2 nM; pharmacokinetic properties in mice [5]: good pharmacokinetic properties; IC50 (KRAS G12D-GTP & SOS1): 16.3 nM; IC50 [7]: 0.3 nM; IC50 (KRAS G12D-GTP & cRAF): 7.9 nM; IC50 [8]: 1 nM
2 | CC#Cc1nc(-c2cc(O)cc3ccc(F)c(CC)c23)c(F)c2nc(OCC34CCCN3CC(F)C4)nc(N3CCCOCC3)c12 (stereo not drawn) [Compound 2] | 6.4 nM | – | 2 nM | – | 2.2 nM | IC50 (KRAS G12D-GTP & SOS1): 20.8 nM; IC50 [7]: 1.6 nM; IC50 (KRAS G12D-GTP & cRAF): 13.7 nM; IC50 [8]: 4.8 nM
3 | C#Cc1c(F)ccc2cc(O)cc(-c3nc(C#CCC)c4c(N5CCCOCC5)nc(OCC56CCCN5CC(F)C6)nc4c3F)c12 (stereo not drawn) [Compound 3] | 3.7 nM | – | 0.7 nM | – | 0.5 nM | IC50 (KRAS G12D-GTP & SOS1): 14.8 nM; IC50 [7]: 0.6 nM; IC50 (KRAS G12D-GTP & cRAF): 7.4 nM; IC50 [8]: 2.2 nM
4 | C#Cc1c(F)ccc2cc(O)cc(-c3nc(C#C)c4c(N5CCCOCC5)nc(OC[C@@]56CCCN5C[C@H](F)C6)nc4c3F)c12 [Compound 7] | 3.3 nM | 5.7 nM | 1.3 nM | 11.6 nM | 0.6 nM | –
5 | C#Cc1c(F)ccc2cc(O)cc(-c3nc(C#C)c4c(N5CCCOCC5)nc(OCC56CC(=C)CN5CC(=C)C6)nc4c3F)c12 [Compound 10] | 1.6 nM | 1.4 nM | 0.7 nM | 6.2 nM | 0.8 nM | –
6 | C#Cc1c(F)ccc2cc(O)cc(-c3nc(C#CC)c4c(N5CCCOCC5)nc(OCC56CCCN5CCC6)nc4c3F)c12 [Compound 11] | 7.4 nM | 20.2 nM | 2 nM | 28.6 nM | 2.6 nM | –
7 | C#Cc1c(F)ccc2cc(O)cc(-c3nc(C#CC)c4c(N5CCCCC(F)C5)nc(OC[C@@]56CCCN5C[C@H](F)C6)nc4c3F)c12 (stereo partly drawn) [Compound 25] | 3 nM | 2.3 nM | 0.8 nM | 7.9 nM | – | IC50 ([2]; Homo sapiens, AGS): 0.8 nM; F_AUCT NF ([9]; mice, 5 mg/kg/day ig administration versus 2 mg/kg/day iv): 23%; AUC(0-inf) ([9]; mouse, plasma, iv, 2 mg/kg/day): 10800 ng·h/mL; AUC(0-t) ([9]; mouse, plasma, iv, 2 mg/kg/day): 10600 ng·h/mL; Cmax ([9]; mouse, plasma, iv, 2 mg/kg/day): 9950 ng/mL; MRT last ([9]; mouse, plasma, iv, 2 mg/kg/day): 1.3 h; Tmax ([9]; mouse, plasma, iv, 2 mg/kg/day): 0.083 h; clearance ([9]; mouse, plasma, iv, 2 mg/kg/day): 3.2 mL/min/kg; half-life ([9]; mouse, plasma, iv, 2 mg/kg/day): 1.2 h; AUC(0-inf) ([9]; mouse, plasma, po, 5 mg/kg/day): 6140 ng·h/mL; AUC(0-t) ([9]; mouse, plasma, po, 5 mg/kg/day): 5960 ng·h/mL; Cmax ([9]; mouse, plasma, po, 5 mg/kg/day): 2660 ng/mL; MRT last ([9]; mouse, plasma, po, 5 mg/kg/day): 1.7 h; Tmax ([9]; mouse, plasma, po, 5 mg/kg/day): 0.42 h; half-life ([9]; mouse, plasma, po, 5 mg/kg/day): 1.3 h; pharmacokinetic properties in mice ([9]; result in words): good pharmacokinetic properties
8 | C#Cc1c(F)ccc2cc(O)cc(-c3nc(C#CCC)c4c(N5CCCCC(F)C5)nc(OC[C@@]56CCCN5C[C@H](F)C6)nc4c3F)c12 (stereo partly drawn) [Compound 26] | 21.5 nM | 15.1 nM | 3.9 nM | 47.3 nM | 3.2 nM | AUC(0-inf) (in vivo; iv, 2 mg/kg/day): 8110 ng·h/mL; AUC(0-t) (in vivo; iv, 2 mg/kg/day): 8050 ng·h/mL; Cmax (in vivo; iv, 2 mg/kg/day): 8280 ng/mL; MRT last (in vivo; iv, 2 mg/kg/day): 1.2 h; Tmax (in vivo; iv, 2 mg/kg/day): 0.083 h; Vd (in vivo; iv, 2 mg/kg/day): 0.3 L/kg; clearance (in vivo; iv, 2 mg/kg/day): 4.1 mL/min/kg; half-life (in vivo; iv, 2 mg/kg/day): 1 h; AUC(0-inf) (in vivo; po, 5 mg/kg/day): 4240 ng·h/mL; AUC(0-t) (in vivo; po, 5 mg/kg/day): 4120 ng·h/mL; Cmax (in vivo; po, 5 mg/kg/day): 1630 ng/mL; MRT last (in vivo; po, 5 mg/kg/day): 1.8 h; Tmax (in vivo; po, 5 mg/kg/day): 0.5 h; half-life (in vivo; po, 5 mg/kg/day): 1.3 h
9 | C#Cc1c(F)ccc2cc(O)cc(-c3nc(C#CC)c4c(N5CCCCC(F)(F)C5)nc(OC[C@@]56CCCN5C[C@H](F)C6)nc4c3F)c12 [Compound 27] | 4.5 nM | 5.1 nM | 2 nM | 19.5 nM | 5.2 nM | –
10 | C#Cc1c(F)ccc2cc(O)cc(-c3nc(C#CC)c4c(N5CCCCCC5)nc(OC[C@@]56CCCN5C[C@H](F)C6)nc4c3F)c12 [Compound 29] | 3.6 nM | 6.2 nM | 2.2 nM | 15.2 nM | 1.4 nM | –
11 | C#Cc1c(F)ccc2cc(O)cc(-c3nc(C#CC)c4c(N5CCOCC(F)(F)C5)nc(OC[C@@]56CCCN5C[C@H](F)C6)nc4c3F)c12 [Compound 38] | 1.41 nM | 1.2 nM | 0.4 nM | 5.4 nM | 1.6 nM | –
